The text below walks through data of patent US20240366693A1, “COMPOSITIONS FOR ENHANCING IMMUNOTHERAPY EFFICACY IN COLORECTAL CANCER TREATMENT” (The Chinese University of Hong Kong, priority 2023, published 2024).

For one data set, the system named is CD4+ T cells. The experiment in a line: Foxp3+ Treg differentiation of CD4+ T cells in vitro. The format is cell-based, mouse. The protocol:
T cells were isolated from spleens of tumour-bearing mice by negative selection using magnetic cell separation (EasySep mouse T cell isolation kit, CD8+ T cell isolation kit or CD4+ CD25+ Regulatory T cell Isolation Kit II; STEMCELL Technologies, Vancouver, Canada). Isolated T cells were cultured in Roswell Park Memorial Institute 1640 medium supplemented with 10% FBS, 50 μM β-mercaptoethanol, 10 ng/ml mouse recombinant interleukin-2 (IL-2), 0.1 ng/mL transforming growth factor β (TGFβ) and activated with Dynabeads mouse anti-CD3/CD28 beads (Thermo Fisher Scientific, Waltham, MA) for 72 hours. Cells were then collected for analysis.

Another data set concerns the target T1, human AHR protein (Homo sapiens, UniProt P35869).
T1 sequence (P35869 11-848): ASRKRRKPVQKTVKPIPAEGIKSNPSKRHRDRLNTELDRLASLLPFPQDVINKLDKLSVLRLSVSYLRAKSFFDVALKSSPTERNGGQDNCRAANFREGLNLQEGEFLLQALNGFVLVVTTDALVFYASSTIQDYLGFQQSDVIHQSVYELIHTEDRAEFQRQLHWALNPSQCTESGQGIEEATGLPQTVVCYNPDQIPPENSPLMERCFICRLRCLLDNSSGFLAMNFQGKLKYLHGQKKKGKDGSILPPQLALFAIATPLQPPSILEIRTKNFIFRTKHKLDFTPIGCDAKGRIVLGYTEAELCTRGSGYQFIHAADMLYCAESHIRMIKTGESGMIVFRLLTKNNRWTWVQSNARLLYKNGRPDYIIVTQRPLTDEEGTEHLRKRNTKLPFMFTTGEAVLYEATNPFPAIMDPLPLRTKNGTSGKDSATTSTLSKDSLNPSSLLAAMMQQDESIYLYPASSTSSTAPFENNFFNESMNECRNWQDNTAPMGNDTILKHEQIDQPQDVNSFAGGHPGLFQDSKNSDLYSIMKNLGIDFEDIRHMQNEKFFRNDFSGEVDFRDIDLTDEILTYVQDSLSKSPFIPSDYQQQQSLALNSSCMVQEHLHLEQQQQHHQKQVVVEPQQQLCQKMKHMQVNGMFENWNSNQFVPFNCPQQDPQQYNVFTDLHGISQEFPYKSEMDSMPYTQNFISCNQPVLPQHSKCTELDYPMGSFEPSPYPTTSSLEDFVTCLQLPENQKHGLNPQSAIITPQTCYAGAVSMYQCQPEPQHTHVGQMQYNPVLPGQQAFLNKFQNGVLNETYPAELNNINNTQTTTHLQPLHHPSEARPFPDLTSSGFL
As to the kind of experiment: biochemical. It is filed as binding. The source says:
We also performed the surface plasma resonance (SPR) assay to explore the interaction between ICA/Kyn with the human AHR receptor. […] These support our hypothesis that ICA displaces Kyn from AHR receptor and inhibited Kyn-mediated Treg differentiation through receptor competition.

In the next data set the test system is CT26. As to the kind of experiment: ICA model in CT26 syngeneic mice with anti-PD1 and Kyn supplementation. It is filed as in vivo, mouse. The following applies: Kyn 10 mg/kg i.p. twice weekly. As to the method: For indolecarboxylic acid (ICA) model, ICA (18 mg/kg, Sigma-Aldrich, St. Louis, MO) was gavaged to mice daily. Tumour inoculation and dosing schedule of anti-PD1 or isotype control is the same as described above. After the outgrowth of palpable tumours, kynurenine (Kyn, 10 mg/kg, Sigma-Aldrich) was intraperitoneally injected into mice twice weekly.

Another data set deals with CD8+ T cells. As to the kind of experiment: Cytotoxic CD8+ T cell markers, T cells from human PBMC. The format is cell-based. The following applies: TH1020 with butyrate. The protocol:
T cells isolated from healthy human peripheral blood mononuclear cells (PBMC) using immunomagnetic negative selection kit (17951, Stemcell Technologies, Vancouver, CA). Isolated T cells were then cultured in complete RPMI-1640 medium supplied with human CD3/CD28 magnet beads (11161D, Thermo Fisher Scientific, Waltham, US) and 30 U/ml recombinant human IL-2 (589104, BioLgend, San Diego, US) for expiation and activation for three days. Mouse T cells were isolated from the spleen of naïve mice and purified with Mouse T cell isolation kit (19851, Thermo Fisher Scientific, Waltham, US), cultured in complete RPMI-1640 medium with mouse CD3/CD28 beads (11456D, Thermo Fisher Scientific, Waltham, US) and 30 U/ml recombinant mouse IL-2 (575404, BioLegend, San Diego, US).
Cytotoxic CD8+ T cell markers Granzyme B, IFN-γ, TNF-α under the in vitro treatments of R.i CM, NaBu or TLR5 inbibitor TH1020 (HY-116961, MedChemExpress, Monmouth Junction, US) were analyzed with flow cytometry. Isolated human T cells were stimulated with 30 ng/ml PMA, 1 μg/ml ionomycin and 2.5 μg/ml monensin in complete RPMI-1640 medium at 37° C. for 4 hours. […]

Another data set deals with NF-κB. The experiment in a line: Phospho-NF-κB p65 in activated Jurkat E6.1 T cells. It is filed as cell-based, human. The following applies: TH1020. The protocol: Phospho-NF-κB p65 (Ser536) Rabbit mAb (3033, Cell Signalling Technology, Danvers, US, 1:1000) and NF-κB p65 (D14E12) Rabbit mAb (8242, Cell Signalling Technology, Danvers, US, 1:1000) were used to measure NF-κB nuclear translocation in αCD3/αCD28/IL2 activated Jurkat E6.1 T cells.
Normal human epithelial cell NCM460, human CRC cell lines HCT116, LoVo, SW480, and mouse CRC cell lines MC38 and CT26 were cultured in Dulbecco's Modified Eagle's Medium (DMEM) with 10% fetal bovine serum (FBS) and 1% penicillin-streptomycin (P/S). Jurkat E6.1 (TIB-152, ATCC) was cultured in RPMI-1640 supplied with 10% FBS and 1% penicillin-streptomycin and activated in 3 μg/ml anti-CD3 (300332, BioLgend, San Diego, US), 5 μg/ml anti-human CD28 (302934, BioLgend, San Diego, US) and 100 IU/ml recombinant human IL-2 (589104, BioLgend, San Diego, US) pre-coated wells for 3 days.

The next data set relates to MC-38. As to the kind of experiment: MC38 rectum orthotopic tumour model. The format is in vivo, mouse. The protocol:
A MSI type mouse CRC cell line, MC-38 cell mix [5×10^5 cells in 10 μL Matrigel (354248, Corning, Manassas, US) per mouse] was orthotopically implanted into the rectum of C57BL/6. […] RMP1-14, Bio X Cell, West Lebanon, US) or control IgG (100 μg per mouse, BP0089, Colone: 2A-3, Bio X Cell) was injected intraperitoneally into MC-38 bearing mice, and followed by total five injections with three days interval one week after MC38 implantation. For tumour-infiltrating immune cell analysis, tumour from MC-38 and CT-26 bearing rectal orthotopic mouse models was minced on ice and digested in PBS buffer containing 0.5 mg/mL collagenase IV and 0.25 mg/ml DNase I at 37° C. for 30 min. After digestion, tumour tissue was filtered through a 70 μm cell strainers, and then distributed into different panels. For the surface staining of MDSC, cells were stained with Brilliant Violet 605 anti-mouse CD45 antibody (30-F11) (103140, BioLegend), PerCP/Cyanine5.5 anti-mouse/human CD11b antibody (M1/70) (101228, BioLegend), PE anti-mouse Ly-6G/Ly-6C (Gr-1) antibody (RB6-8C5). MDSC was gated in CD45^+ CD11b^+ Gr-1^+. For CD8 functional markers staining, the procedures were similar with the in vitro T cell analysis. Antibodies used for staining are as following: Brilliant Violet 605 anti-mouse CD45 antibody (30-F11) (103140, BioLegend), PE anti-mouse CD3 antibody (17A2) (100206, BioLegend), Brilliant Violet anti-mouse CD8a antibody (53-6.7) (100738, BioLegend), PE/Cyanine5 anti-mouse CD4 antibody (GK1.5) (100410, BioLegend), PE/Cyanine7 anti-human/mouse Granzyme B recombinant antibody (QA16A02) (372214, BioLegend), FITC anti-mouse IFN-γ antibody (XMG1.2) (505806, BioLegend), Brilliant Violet 711 anti-moue TNF-α (MP6-XT22) (506349, BioLegend). Flow Cytometry was performed on FACSAria cell sorter (BD Biosciences, Franklin Lakes, US). Data was analyzed by FlowJo 10.4.

A further data set deals with CT-26. The experiment in a line: CT26 rectum orthotopic tumour model. It is filed as in vivo, mouse. The source says: CT-26 tumour-bearing BALB/c mice with the same setting and treatment of MC-38 orthotopic model was developed to evaluate the efficacy of αPD-1 antibody immunotherapy on microsatellite stable (MSS)-type colorectal cancer. All experimental procedures were approved by the Chinese University of Hong Kong Animal Ethics Committee.
For tumour-infiltrating immune cell analysis, tumour from MC-38 and CT-26 bearing rectal orthotopic mouse models was minced on ice and digested in PBS buffer containing 0.5 mg/mL collagenase IV and 0.25 mg/ml DNase I at 37° C. for 30 min. After digestion, tumour tissue was filtered through a 70 μm cell strainers, and then distributed into different panels. For the surface staining of MDSC, cells were stained with Brilliant Violet 605 anti-mouse CD45 antibody (30-F11) (103140, BioLegend), PerCP/Cyanine5.5 anti-mouse/human CD11b antibody (M1/70) (101228, BioLegend), PE anti-mouse Ly-6G/Ly-6C (Gr-1) antibody (RB6-8C5). MDSC was gated in CD45^+ CD11b^+ Gr-1^+. For CD8 functional markers staining, the procedures were similar with the in vitro T cell analysis. Antibodies used for staining are as following: Brilliant Violet 605 anti-mouse CD45 antibody (30-F11) (103140, BioLegend), PE anti-mouse CD3 antibody (17A2) (100206, BioLegend), Brilliant Violet anti-mouse CD8a antibody (53-6.7) (100738, BioLegend), PE/Cyanine5 anti-mouse CD4 antibody (GK1.5) (100410, BioLegend), PE/Cyanine7 anti-human/mouse Granzyme B recombinant antibody (QA16A02) (372214, BioLegend), FITC anti-mouse IFN-γ antibody (XMG1.2) (505806, BioLegend), Brilliant Violet 711 anti-moue TNF-α (MP6-XT22) (506349, BioLegend). Flow Cytometry was performed on FACSAria cell sorter (BD Biosciences, Franklin Lakes, US). Data was analyzed by FlowJo 10.4.

Where [1] appears, read: treatment alone vs αPD-1 therapy and control groups.

Regarding `O=Cc1c[nH]c2ccccc12` [IAld, indole-3-carboxaldehyde, reference compound], in the data set on CD4+ T cells (naïve CD4+ T cells, without Kyn), the “Treg differentiation, treatment alone” value is reported as “none significantly affected Treg differentiation”.

Take `Nc1ccccc1C(=O)CC(N)C(=O)O` (centres unmarked) [Kyn, Kynurenine, reference compound]: in the data set on CD4+ T cells (Kyn 50 μM, P<0.0001), the Treg differentiation result was “significantly induced Treg differentiation”. Besides, the Kd at human AHR protein was 61 µM. In addition, in the data set on CT26, the “effect of Kyn supplementation on ICA immune effects” value is listed as “also reversed by Kyn supplementation” and the “effect of Kyn supplementation on ICA tumour effect” value is listed as “reversed the effect of ICA”.

Consider `c1ccc(Cn2c(Sc3ncnc4c3sc3ncccc34)nnc2-c2ccncc2)cc1` [TH1020, reference compound], for which the “butyrate promotion of Granzyme B, IFN-γ and TNF-α in CD8+ T cells under TLR5 antagonist” value in the data set with CD8+ T cells was “abolished the effective promotion of butyrate on Granzyme B, IFN-γ and TNF-α in CD8+ T cells”. The “R.i CM- and butyrate-induced phospho-NF-κB under TLR5 antagonist” value with NF-κB is listed as “inhibited by Th1020”.

`Cc1ccccc1N=Nc1ccc(NC(=O)c2ccnn2C)c(C)c1` [CH-233191, reference compound]: the “Kyn and ICA effects on Treg differentiation” value in the data set on CD4+ T cells (CH-233191 10 μM) was “abolished both Kyn and ICA effects in mediating Treg differentiation”.

For `CCCC(=O)[O-].[Na+]` [NaBu, sodium butyrate], the “efficiency of αPD-1 therapy in combination” value with MC-38 (combination of αPD-1 with R.i or NaBu) is given as “did not enhance the efficiency of αPD-1 therapy”. Also, the “MC38 orthotopic tumour growth” value in the data set on MC-38 (monotreatment, R.i 1×10^8 CFU daily gavage, 150 mM NaBu in drinking water, αPD-1 100 μg per mouse) was “inhibited MC38 orthotopic tumour growth”. Also, in the data set with MC-38 (mouse, in vivo), the “Granzyme B+, IFN-γ+ and TNF-α+ CD8+ T cells” value is recorded as “increased”; the MDSCs result is “decreasing MDSCs”; the “tumour infiltrating CD8+ T cells” value is listed as “increased infiltrating CD8^+ T cells”. In the data set on CT-26 (combination with anti-PD-1), the “anti-tumour effects in combination with anti-PD-1” value is “further heightened the anti-tumour effects”; the “infiltrating and cytotoxic CD8+ T cells in combination with anti-PD-1” value is “additional effects on these immune cells”. Moreover, the “proportion of MDSCs in tumours” value in the data set on CT-26 (monotherapy) is “reduced the proportion of MDSCs in tumours”. Also, in the data set with CT-26 (monotreatment), the “Granzyme B+, IFN-γ and TNF-α+ CD8+ T cells” value is recorded as “significantly increased”; the “proportion of infiltrating CD8+ T cells” value was “significantly increased”. Besides, in the data set with CT-26 (setting [1]), the tumour size entry was “still reduced” and the tumour weight entry is recorded as “still reduced”.
